Measured values as given in PMC9736374, “Design, Synthesis and Antimicrobial Properties of New Tetracyclic Quinobenzothiazine Derivatives” (International Journal of Molecular Sciences, 2022).

Assays:
M. smegmatis ATCC 700084 = test: In vitro antimycobacterial MIC, broth dilution micro-method; type: cell-based, Mycobacterium smegmatis; details: Mycolicibacterium smegmatis, ATCC700084, 72 h; MS = M. smegmatis ATCC 700084; 3 days, 37 °C
[1] = system: Staphylococcus aureus ATCC 29213; test: MBC, agar aliquot subculture method; type: cell-based; details: ATCC29213; SA = Staphylococcus aureus ATCC 29213
[2] = system: Mycobacterium marinum CAMP 5644; test: In vitro antimycobacterial MIC, broth dilution micro-method; type: cell-based; details: CAMP5644, 504 h; MM = Mycobacterium marinum CAMP 5644; 21 days, 28 °C
[3] = system: vancomycin-resistant E. faecalis VRE 342B (VRE1); test: MBC, agar aliquot subculture method; type: cell-based, Enterococcus faecalis; details: VRE1 = VRE 342B
[4] = system: vancomycin-resistant E. faecalis VRE 368 (VRE2); test: MIC, microtitration broth method; type: cell-based, Enterococcus faecalis; details: VRE2 = VRE 368; 24 h, 37 °C
Lipophilicity by RP-TLC = type: physicochemical; details: Tris buffer pH 7.4/acetone, read-out: logPTLC
Description: The lipophilicity parameters were determined experimentally using reverse phase thin-layer chromatography (RP-TLC). Chromatograms were prepared on RP-18F254s plates (1.05559.0001, Merck, Germany) precoated with nonpolar silicone oil. Plates were developed in glass chromatography chambers previously saturated with vapor of mobile phase. The mobile phase was composed of 0.2M Tris buffer (pH = 7.4) and acetone in different concentrations, i.e., 50%, 60%, 70%, 80 and 90%. The chromatograms were visualised in UV light (λ = 254 nm). Determination of the RF coefficient was carried out twice for all compounds; in all cases, acetone concentrations used. The final value of RF is the mean of the two measurements. The obtained RF coefficient was used to calculate the value of the RM parameter according to the equation: RM = log [(1/RF) − 1]. By extrapolating RM values to zero acetone concentration, a relative RM0 lipophilicity parameter was obtained, according to the equation: RM = RM0 + bC, where b is slope and C is concentration of acetone in mobile phase. Based on RM0 and the calibration curve, the values of logPTLC for compounds 6a–l were determined. The calibration curve was calculated using the relationship between RM0 of the standard molecules (acetanilide, p-kresol, p-bromoacetophenone, benzophenone, anthracene) and the corresponding logP parameters specified by the extraction method, respectively. RM0 parameters of the standard molecules and quinobenzothiazine derivatives 6a–l were determined in the same empirical conditions.

[5] = system: methicillin-resistant S. aureus 63718 (MRSA3); test: MIC, microtitration broth method; type: cell-based; details: Staphylococcus aureus; MRSA3 = 63718; 24 h, 37 °C
[6] = system: methicillin-resistant S. aureus 63718 (MRSA3); test: MBC, agar aliquot subculture method; type: cell-based; details: Staphylococcus aureus; MRSA3 = 63718
[7] = system: vancomycin-resistant E. faecalis VRE 725B (VRE3); test: MIC, microtitration broth method; type: cell-based, Enterococcus faecalis; details: VRE3 = VRE 725B; 24 h, 37 °C
S. aureus = test: Crystal violet uptake (membrane permeability); type: cell-based, Staphylococcus aureus; details: 4× MIC, 1 h; compared to growth control and 1% Tween 20
Description: Phenothiazines are also known for their ability to interact with and damage the cell wall, which has fatal consequences for the microorganism. Therefore, the bacterial suspensions were treated by compounds 6a, 6e, 6g, 6j and 6k (4× MIC) for 1 h. The uptake of crystal violet was expressed as a percentage compared to the original crystal violet solution.

[8] = system: S. aureus ATCC 29213 respiratory activity; test: MTT assay of bacterial respiration; type: cell-based, Staphylococcus aureus
[9] = system: vancomycin-resistant E. faecalis VRE 342B (VRE1); test: MIC, microtitration broth method; type: cell-based, Enterococcus faecalis; details: VRE1 = VRE 342B; 24 h, 37 °C
[10] = system: methicillin-resistant S. aureus SA 3202 (MRSA1); test: MBC, agar aliquot subculture method; type: cell-based; details: Staphylococcus aureus; MRSA1 = SA 3202
[11] = system: Enterococcus faecalis ATCC 29212; test: MIC, microtitration broth method; type: cell-based; details: ATCC29212; EF = Enterococcus faecalis; 24 h, 37 °C
[12] = system: methicillin-resistant S. aureus SA 3202 (MRSA1); test: MIC, microtitration broth method; type: cell-based; details: Staphylococcus aureus; MRSA1 = SA 3202; 24 h, 37 °C
[13] = system: vancomycin-resistant E. faecalis VRE 368 (VRE2); test: MBC, agar aliquot subculture method; type: cell-based, Enterococcus faecalis; details: VRE2 = VRE 368
[14] = system: normal human dermal fibroblasts (NHDF); test: In vitro cell viability, WST-1 assay; type: cell-based; details: 72 h
Description: Compounds were evaluated for their antiproliferative activity using NHDF (normal human dermal fibroblasts, ATCC, Manassas, VA, USA). The cultured cells were kept at 37 °C and 5% CO2. The cells were seeded (1 × 10^4 cells/well/100 μL DMEM supplemented with 10% FCS and streptomycin/penicillin) into 96-well plates (Corning Inc., Corning, NY, USA). Cells were counted using a hemocytometer (Burker chamber) and phase contrast Olympus IX50 microscope equipped with Sony SSC-DC58 AP camera and Olympus DP10 digital camera. The cell viability of the compounds was determined using the Cell Proliferation Reagent WST-1 assay (Roche Molecular Biochemicals, Mannheim, Germany). The examined cells were exposed to the tested compounds (1 mg/mL DMSO stock) for 72 h at various concentrations (0.1–100 μg/mL). The control was included in order to eliminate the DMSO effect at the concentration used. Cell cultures were incubated with WST-1 (10 μL) for 1 h. The absorbance of the samples was measured against a background control at 450 nm using a microplate reader with a reference wavelength at 600 nm. The obtained results are expressed as means of at least two independent experiments performed in triplicate.

[15] = system: methicillin-resistant S. aureus SA 630 (MRSA2); test: MIC, microtitration broth method; type: cell-based; details: Staphylococcus aureus; MRSA2 = SA 630; 24 h, 37 °C
[16] = system: vancomycin-resistant E. faecalis VRE 725B (VRE3); test: MBC, agar aliquot subculture method; type: cell-based, Enterococcus faecalis; details: VRE3 = VRE 725B
[17] = system: Enterococcus faecalis ATCC 29212; test: MBC, agar aliquot subculture method; type: cell-based; details: ATCC29212; EF = Enterococcus faecalis
[18] = system: Staphylococcus aureus ATCC 29213; test: MIC, microtitration broth method; type: cell-based; details: ATCC29213; SA = Staphylococcus aureus ATCC 29213; 24 h, 37 °C
[19] = system: methicillin-resistant S. aureus SA 630 (MRSA2); test: MBC, agar aliquot subculture method; type: cell-based; details: Staphylococcus aureus; MRSA2 = SA 630
[20] = S. aureus ATCC 29213, MTT, 24 h

| SMILES | MIC (M. smegmatis ATCC 700084) [µM] | MBC [1] [µM] | MIC [2] [µM] | MBC [3] [µM] | MIC [4] [µM] | chromatographic logP (Lipophilicity by RP-TLC) | MIC [5] [µM] | MBC [6] [µM] | MIC [7] [µM] | MIC [9] [µM] | MBC [10] [µM] | MIC [11] [µM] | MIC [12] [µM] | MBC [13] [µM] | IC50 [14] [µM] | MIC [15] [µM] | MBC [16] [µM] | MBC [17] [µM] | MIC [18] [µM] | MBC [19] [µM] | also measured |
| --- | --- | --- | --- | --- | --- | --- | --- | --- | --- | --- | --- | --- | --- | --- | --- | --- | --- | --- | --- | --- | --- |
| CCCOc1ccc2c(c1)Sc1c[n+](C)c3ccccc3c1N2 [Compound 6a, 9-propoxy-5-methyl-12H-quino[3,4-b][1,4]benzothiazinium chloride] | 22.3 | 22.3 | 22.3 | 89.1 | 89.1 | 1.65 | 11.1 | 11.1 | 89.1 | 89.1 | 22.3 | 89.1 | 22.3 | 89.1 | > 100 | 22.3 | 178 | 89.1 | 22.3 | 22.3 | Effect on plasma membrane permeability (uptake of crystal violet) (S. aureus): did not affect plasma membrane permeability; Conc.: corresponding multiple of MBC with at least 70% inhibition of respiratory activity [8, 20]: 2× MIC (2× MBC); Conc.: lowest multiple of MIC with at least 70% inhibition of respiratory activity [8, 20]: 2× MIC (2× MBC); Decrease in viability < 70% at MIC value (MTT) ([8]; S. aureus ATCC 29213, at MIC): did not show a decrease in viability < 70%; S. aureus Respiration Inhibition ([8]; at the concentration given): 97.7% |
| C=CCOc1cccc2c1Nc1c(c[n+](C)c3ccccc13)S2 [Compound 6f, 11-allyloxy-5-methyl-12H-quino[3,4-b][1,4]benzothiazinium chloride] | 89.6 | 359 | 44.8 | 359 | 359 | 2.29 | 179 | 359 | 179 | 359 | 359 | 179 | 359 | 359 | > 100 | 359 | 179 | 359 | 359 | 359 | – |
| C#CCOc1ccc2c(c1)Nc1c(c[n+](C)c3ccccc13)S2 [Compound 6h, 10-propargyloxy-5-methyl-12H-quino[3,4-b][1,4]benzothiazinium chloride] | 22.5 | 45.1 | 22.5 | 45.1 | 45.1 | 1.74 | 45.1 | 45.1 | 22.5 | 45.1 | 90.1 | 45.1 | 90.1 | 45.1 | > 100 | 90.1 | 22.5 | 45.1 | 45.1 | 90.1 | – |
| C#CCOc1cccc2c1Nc1c(c[n+](C)c3ccccc13)S2 [Compound 6i, 11-propargyloxy-5-methyl-12H-quino[3,4-b][1,4]benzothiazinium chloride] | 90.1 | 180 | 45.1 | 180 | 180 | 2.2 | 180 | 180 | 180 | 180 | 361 | 361 | 180 | 180 | 47.5 | 361 | 180 | 361 | 180 | 361 | – |
| C[n+]1cc2c(c3ccccc31)Nc1c(OCc3ccccc3)cccc1S2 [Compound 6l, 11-benzyloxy-5-methyl-12H-quino[3,4-b][1,4]benzothiazinium chloride] | 39.3 | 39.3 | 9.83 | 157 | 157 | 3.1 | 39.3 | 39.3 | 157 | 157 | 78.6 | 157 | 39.3 | 157 | > 100 | 78.6 | 157 | 157 | 39.3 | 78.6 | – |
